# Like-named read-outs stand apart in the source and are kept apart here.
# Key:
# [1] = tested on: IPOHE; test: Greenhouse post-emergence treatment, herbicidal activity against IPOHE; assay type: in vivo, Ipomoea hederacea
# Protocol: (§1) The culture containers used were plastic pots containing loamy sand with approximately 2-3.0% of organic matter. The seeds of the test plants were sown separately for each species.
# (§2) For the post-emergence treatment, the test plants were grown to a plant height of from 3 to 15 cm, depending on the plant habit, and only then treated with the active compounds which had been suspended or emulsified in water. To this end, the test plants were either sown directly, and grown in the same containers, or they were first grown separately as seedlings and transplanted into the test containers a few days prior to treatment.
# (§3) Depending on the species, the plants were kept at 10-25° C. and 20-35° C., respectively. The test period extended over 1 to 4 weeks. During this time, the plants were tended and their response to the individual treatments was evaluated.
# (§4) Evaluation was carried out using a scale from 0 to 100. 100 means no emergence of the plants, or complete destruction of at least the above-ground parts, and 0 means no damage or normal course of growth.
# [2] = tested on: COMBE; test: Greenhouse post-emergence treatment, herbicidal activity against COMBE; assay type: in vivo, Commelina benghalensis
# Protocol: as §1, §2, §3, §4
# [3] = tested on: BRADE; test: Greenhouse post-emergence treatment, herbicidal activity against BRADE; assay type: in vivo, Brachiaria deflexa
# Protocol: as §1, §2, §3, §4
# [4] = tested on: AMARE; test: Greenhouse post-emergence treatment, herbicidal activity against AMARE; assay type: in vivo, Amaranthus retroflexus L.
# Protocol: as §1, §2, §3, §4
# [5] = tested on: SETVI; test: Greenhouse post-emergence treatment, herbicidal activity against SETVI; assay type: in vivo, Setaria viridis L.
# Protocol: as §1, §2, §3, §4
# [6] = tested on: LEFFA; test: Greenhouse post-emergence treatment, herbicidal activity against LEFFA; assay type: in vivo, Leptochloa fusca subsp. Fascicularis
# Protocol: as §1, §2, §3, §4
# [7] = tested on: PHACA; test: Greenhouse post-emergence treatment, herbicidal activity against PHACA; assay type: in vivo, Phalaris canariensis L.
# Protocol: as §1, §2, §3, §4
# [8] = tested on: SEBEX; test: Greenhouse post-emergence treatment, herbicidal activity against SEBEX; assay type: in vivo, Sesbania exaltata
# Protocol: as §1, §2, §3, §4
compound,measurement,setting,value
"COc1cc(OC)nc(NC(=O)NS(=O)(=O)c2c(-c3nnn(C)n3)cnn2C)n1 [b2.1, azimsulfuron]","herbicidal activity against IPOHE, found",[1]; b2.1 10 g/ha a.i.,90%
same,"herbicidal activity against COMBE, found",[2]; b2.1 5 g/ha a.i.,0%
"COc1cc(OC)nc(NC(=O)NS(=O)(=O)Cc2ccccc2C(=O)O)n1 [b2.2, bensulfuron]","herbicidal activity against BRADE, found",[3]; b2.2 31 g/ha a.i.,0%
same,"herbicidal activity against AMARE, found",[4]; b2.2 31 g/ha a.i.,80%
"O=C(O)c1c(Cl)ccc2cc(Cl)cnc12 [b7.5, quinclorac]","herbicidal activity against COMBE, found",[2]; b7.5 7.5 g/ha a.i.,0%
same,"herbicidal activity against SETVI, found",[5]; b7.5 90 g/ha a.i.,65%
same,pest or weed control at 75 g/ha,"[6]; Diplachne fusca, Example 12, b7.5 75 g/ha a.i., read-out: herbicidal activity against LEFFA, found",65%
same,"herbicidal activity against LEFFA, found","[6]; Example 13, b7.5 75 g/ha a.i.",65%
same,"herbicidal activity against AMARE, found",[4]; b7.5 180 g/ha a.i.,50%
"COc1c(Cl)ccc(Cl)c1C(=O)O [b7.2, dicamba]",pest or weed control at 250 g/ha,"[6]; Diplachne fusca, b7.2 250 g/ha a.i., read-out: herbicidal activity against LEFFA, found",25%
"C[C@@H](Oc1ccc(Oc2cnc3cc(Cl)ccc3n2)cc1)C(=O)O [a1.14, quizalofop-P]","herbicidal activity against PHACA, found",[7]; a1.14 15 g/ha a.i.,65%
same,"herbicidal activity against IPOHE, found","[1]; Example 3, a1.14 12 g/ha a.i.",0%
same,"herbicidal activity against IPOHE, found","[1]; Example 5, a1.14 12 g/ha a.i.",5%
same,"herbicidal activity against COMBE, found",[2]; a1.14 10 g/ha a.i.,0%
same,"herbicidal activity against COMBE, found",[2]; a1.14 15 g/ha a.i.,0%
same,"herbicidal activity against SETVI, found",[5]; a1.14 7.5 g/ha a.i.,75%
same,"herbicidal activity against SETVI, found",[5]; a1.14 15 g/ha a.i.,85%
same,"herbicidal activity against LEFFA, found","[6]; Example 10, a1.14 10 g/ha a.i.",40%
same,"herbicidal activity against LEFFA, found","[6]; Example 11, a1.14 10 g/ha a.i.",40%
same,"herbicidal activity against LEFFA, found","[6]; Example 12, a1.14 10 g/ha a.i.",40%
same,"herbicidal activity against LEFFA, found","[6]; Example 13, a1.14 10 g/ha a.i.",40%
same,"herbicidal activity against LEFFA, found",[6]; a1.14 15 g/ha a.i.,65%
same,"herbicidal activity against AMARE, found",[4]; a1.14 7.5 g/ha a.i.,20%
same,"herbicidal activity against SEBEX, found",[8]; a1.14 15 g/ha a.i.,0%
"CCCC(=NOCC)C1=C(O)CC(C2CCCSC2)CC1=O (stereo not shown) [a1.19, cycloxydim]","herbicidal activity against IPOHE, found","[1]; Example 1, a1.19 10 g/ha a.i.",10%
same,"herbicidal activity against IPOHE, found","[1]; Example 6, a1.19 10 g/ha a.i.",10%
same,"herbicidal activity against IPOHE, found",[1]; a1.19 5 g/ha a.i.,0%
same,"herbicidal activity against BRADE, found",[3]; a1.19 10 g/ha a.i.,65%
same,"herbicidal activity against COMBE, found",[2]; a1.19 10 g/ha a.i.,0%
same,pest or weed control at 5 g/ha,"[6]; Diplachne fusca, a1.19 5 g/ha a.i., read-out: herbicidal activity against LEFFA, found",50%
same,"herbicidal activity against AMARE, found","[4]; Example 2, a1.19 10 g/ha a.i.",0%
same,"herbicidal activity against AMARE, found","[4]; Example 6, a1.19 10 g/ha a.i.",0%
"COc1cc(OC)nc(Oc2cccc(Oc3nc(OC)cc(OC)n3)c2C(=O)O)n1 [b2.13, bispyribac]","herbicidal activity against IPOHE, found","[1]; Example 5, b2.13 5 g/ha a.i.",75%
same,"herbicidal activity against IPOHE, found","[1]; Example 6, b2.13 5 g/ha a.i.",75%
same,pest or weed control at 5 g/ha,"[6]; Diplachne fusca, Example 10, b2.13 5 g/ha a.i., read-out: herbicidal activity against LEFFA, found",65%
same,"herbicidal activity against LEFFA, found","[6]; Example 11, b2.13 5 g/ha a.i.",65%
same,"herbicidal activity against AMARE, found",[4]; b2.13 5 g/ha a.i.,90%
"COc1cnc(OC)n2nc(NS(=O)(=O)c3c(OCC(F)F)cccc3C(F)(F)F)nc12 [b2.12, penoxsulam]","herbicidal activity against IPOHE, found","[1]; Example 3, b2.12 8 g/ha a.i.",80%
same,"herbicidal activity against IPOHE, found","[1]; Example 4, b2.12 8 g/ha a.i.",80%
same,pest or weed control at 8 g/ha,"[6]; Diplachne fusca, b2.12 8 g/ha a.i., read-out: herbicidal activity against LEFFA, found",0%
"CC(C)N(C)S(=O)(=O)NC(=O)c1cc(-n2c(=O)cc(C(F)(F)F)n(C)c2=O)c(F)cc1Cl [b4.3, saflufenacil]",pest or weed control at 2.5 g/ha,"[6]; Diplachne fusca, Example 11, b4.3 2.5 g/ha a.i., read-out: herbicidal activity against LEFFA, found",65%
same,"herbicidal activity against LEFFA, found","[6]; Example 12, b4.3 2.5 g/ha a.i.",65%
"CC1(C)CON(Cc2ccccc2Cl)C1=O [b5.1, clomazone]","herbicidal activity against COMBE, found",[2]; b5.1 75 g/ha a.i.,70%
same,"herbicidal activity against SETVI, found",[5]; b5.1 75 g/ha a.i.,15%
"CC(C)N1C(=O)c2ccccc2NS1(=O)=O [b3.1, bentazone]","herbicidal activity against COMBE, found",[2]; b3.1 250 g/ha a.i.,95%
same,pest or weed control at 250 g/ha,"[6]; Diplachne fusca, b3.1 250 g/ha a.i., read-out: herbicidal activity against LEFFA, found",10%
"O=C(O)COc1nc(Cl)c(Cl)cc1Cl [b7.6, triclopyr]","herbicidal activity against PHACA, found",[7]; b7.6 50 g/ha a.i.,0%
same,pest or weed control at 50 g/ha,"[6]; Diplachne fusca, b7.6 50 g/ha a.i., read-out: herbicidal activity against LEFFA, found",20%
same,"herbicidal activity against SEBEX, found",[8]; b7.6 50 g/ha a.i.,50%
